# Experimental data taken from patent US8445492B2, “Method for inhibiting growth of cancer cells and cell telomere and diseases of cell proliferation by using heteroannelated anthraquinone derivative compounds” (National Defense Medical Center, priority 2008, dated 2013).
# Where two headings read alike, the source gives them in different places.
# What was measured:
# NCI-H460 [1] = test system: NCI-H460
# HOP-92 [2] = test system: HOP-92
# A549/ATCC [3] = test system: A549/ATCC
# HOP-62 [4] = test system: HOP-62
# NCI-H522 [5] = test system: NCI-H522
# NCI-H522 [6] = test system: NCI-H522; remark: listed apart in the source
# NCI-H23 [7] = test system: NCI-H23
# EKVX [8] = test system: EKVX
# NCI-H226 [9] = test system: NCI-H226
# NCI-H460 [10] = test system: NCI-H460; remark: listed apart in the source
# A549/ATCC [11] = test system: A549/ATCC; remark: listed apart in the source
# HOP-92 [12] = test system: HOP-92; remark: listed apart in the source
# EKVX [13] = test system: EKVX; remark: listed apart in the source
# HOP-62 [14] = test system: HOP-62; remark: listed apart in the source
# NCI-H226 [15] = test system: NCI-H226; remark: listed apart in the source
# NCI-H23 [16] = test system: NCI-H23; remark: listed apart in the source
compound,measurement,setting,value
O=C1c2ccccc2C(=O)c2c1ccc1nccnc21 [TABLE 5-2],CC50,NCI-H460 [1],> 100 µM
same,CC50,HOP-92 [2],> 100 µM
same,CC50,A549/ATCC [3],> 100 µM
same,CC50,HOP-62 [4],> 100 µM
same,GI50,NCI-H522 [5],4.64 µM
same,TGI,NCI-H522 [5],3.25E−5
same,Percent Growth,NCI-H522 [5]; Log10 Concentration −4.0,−33%
same,Percent Growth,NCI-H522 [5]; Log10 Concentration −5.0,35%
same,Percent Growth,NCI-H522 [5]; Log10 Concentration −6.0,81%
same,Percent Growth,NCI-H522 [5]; Log10 Concentration −7.0,86%
same,Percent Growth,NCI-H522 [5]; Log10 Concentration −8.0,89%
same,CC50,NCI-H522 [6],> 100 µM
same,CC50,NCI-H23 [7],> 100 µM
same,CC50,EKVX [8],> 100 µM
same,GI50,NCI-H226 [9],16.6 µM
same,TGI,NCI-H226 [9],9.52E−5
same,Percent Growth,NCI-H226 [9]; Log10 Concentration −4.0,−1%
same,Percent Growth,NCI-H226 [9]; Log10 Concentration −5.0,64%
same,Percent Growth,NCI-H226 [9]; Log10 Concentration −6.0,73%
same,Percent Growth,NCI-H226 [9]; Log10 Concentration −7.0,81%
same,Percent Growth,NCI-H226 [9]; Log10 Concentration −8.0,86%
same,GI50,NCI-H460 [10],2.01 µM
same,TGI,NCI-H460 [10],2.69E−5
same,Percent Growth,NCI-H460 [10]; Log10 Concentration −4.0,−22%
same,Percent Growth,NCI-H460 [10]; Log10 Concentration −5.0,17%
same,Percent Growth,NCI-H460 [10]; Log10 Concentration −6.0,65%
same,Percent Growth,NCI-H460 [10]; Log10 Concentration −7.0,95%
same,Percent Growth,NCI-H460 [10]; Log10 Concentration −8.0,98%
same,GI50,A549/ATCC [11],4.53 µM
same,TGI,A549/ATCC [11],>1.00E−4
same,Percent Growth,A549/ATCC [11]; Log10 Concentration −4.0,3%
same,Percent Growth,A549/ATCC [11]; Log10 Concentration −5.0,36%
same,Percent Growth,A549/ATCC [11]; Log10 Concentration −6.0,77%
same,Percent Growth,A549/ATCC [11]; Log10 Concentration −7.0,95%
same,Percent Growth,A549/ATCC [11]; Log10 Concentration −8.0,93%
same,GI50,HOP-92 [12],22.5 µM
same,TGI,HOP-92 [12],>1.00E−4
same,Percent Growth,HOP-92 [12]; Log10 Concentration −4.0,8%
same,Percent Growth,HOP-92 [12]; Log10 Concentration −5.0,73%
same,Percent Growth,HOP-92 [12]; Log10 Concentration −6.0,78%
same,Percent Growth,HOP-92 [12]; Log10 Concentration −7.0,83%
same,Percent Growth,HOP-92 [12]; Log10 Concentration −8.0,95%
same,GI50,EKVX [13],3.45 µM
same,TGI,EKVX [13],7.21E−5
same,Percent Growth,EKVX [13]; Log10 Concentration −4.0,−4%
same,Percent Growth,EKVX [13]; Log10 Concentration −5.0,25%
same,Percent Growth,EKVX [13]; Log10 Concentration −6.0,79%
same,Percent Growth,EKVX [13]; Log10 Concentration −7.0,89%
same,Percent Growth,EKVX [13]; Log10 Concentration −8.0,101%
same,GI50,HOP-62 [14],5.64 µM
same,TGI,HOP-62 [14],>1.00E−4
same,Percent Growth,HOP-62 [14]; Log10 Concentration −4.0,3%
same,Percent Growth,HOP-62 [14]; Log10 Concentration −5.0,40%
same,Percent Growth,HOP-62 [14]; Log10 Concentration −6.0,81%
same,Percent Growth,HOP-62 [14]; Log10 Concentration −7.0,82%
same,Percent Growth,HOP-62 [14]; Log10 Concentration −8.0,92%
same,CC50,NCI-H226 [15],> 100 µM
same,GI50,NCI-H23 [16],12 µM
same,TGI,NCI-H23 [16],7.03E−5
same,Percent Growth,NCI-H23 [16]; Log10 Concentration −4.0,−10%
same,Percent Growth,NCI-H23 [16]; Log10 Concentration −5.0,55%
same,Percent Growth,NCI-H23 [16]; Log10 Concentration −6.0,84%
same,Percent Growth,NCI-H23 [16]; Log10 Concentration −7.0,87%
same,Percent Growth,NCI-H23 [16]; Log10 Concentration −8.0,92%
